Measurements: paper PMC2610240 (Drug metabolism and disposition: the biological fate of …, 2008)
Where “and” joins values, the source holds several entries; their conditions need not be identical. Identical values can stand only once.

Assays:
[1] = target: T1, purified recombinant human CPR (NADPH-cytochrome P450 reductase) (Homo sapiens, UniProt P16435); assay: Inhibition of recombinant CPR activity; conditions: recombinant enzyme
T1 sequence (P16435 1-677): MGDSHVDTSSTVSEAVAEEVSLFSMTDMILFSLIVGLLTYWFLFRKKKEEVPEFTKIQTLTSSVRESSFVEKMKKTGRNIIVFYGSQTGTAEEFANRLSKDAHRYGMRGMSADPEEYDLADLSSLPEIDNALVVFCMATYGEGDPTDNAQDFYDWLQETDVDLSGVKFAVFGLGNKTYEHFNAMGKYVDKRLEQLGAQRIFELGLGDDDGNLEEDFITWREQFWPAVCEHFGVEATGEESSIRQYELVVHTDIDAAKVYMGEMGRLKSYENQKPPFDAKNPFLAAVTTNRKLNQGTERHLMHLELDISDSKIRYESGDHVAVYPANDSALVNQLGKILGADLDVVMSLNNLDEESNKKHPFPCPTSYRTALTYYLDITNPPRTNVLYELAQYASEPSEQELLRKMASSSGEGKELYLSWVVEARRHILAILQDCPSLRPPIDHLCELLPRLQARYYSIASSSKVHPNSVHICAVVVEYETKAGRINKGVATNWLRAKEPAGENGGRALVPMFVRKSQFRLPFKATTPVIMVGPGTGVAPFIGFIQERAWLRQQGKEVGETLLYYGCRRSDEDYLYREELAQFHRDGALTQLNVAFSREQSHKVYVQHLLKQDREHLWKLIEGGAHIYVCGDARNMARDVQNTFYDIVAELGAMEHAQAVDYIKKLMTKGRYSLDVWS

[2] = target: T2, CPR activity in human liver microsomes (Homo sapiens, UniProt P16435); assay: Inhibition of CPR activity in HLMs
T2 sequence (P16435 1-677): T1 sequence (P16435 1-677)

[3] = target: T3, purified recombinant human b5R (NADH b5 reductase) (Homo sapiens, UniProt P00387); assay: Inhibition of recombinant b5R activity; format: biochemical
T3 sequence (P00387 1-301): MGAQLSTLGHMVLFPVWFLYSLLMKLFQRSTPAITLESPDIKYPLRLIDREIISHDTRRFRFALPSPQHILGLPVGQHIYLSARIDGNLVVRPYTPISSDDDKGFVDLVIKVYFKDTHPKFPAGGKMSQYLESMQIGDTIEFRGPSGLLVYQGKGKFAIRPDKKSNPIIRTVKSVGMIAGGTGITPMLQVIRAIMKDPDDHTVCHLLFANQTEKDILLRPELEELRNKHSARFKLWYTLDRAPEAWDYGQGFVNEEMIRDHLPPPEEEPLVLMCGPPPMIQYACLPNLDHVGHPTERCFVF

[4] = target: T4, b5R activity in human liver microsomes (Homo sapiens, UniProt P00387); assay: Inhibition of b5R activity in HLMs; format: biochemical
T4 sequence (P00387 1-301): T3 sequence (P00387 1-301)

[5] = target: T1, purified recombinant human CPR (NADPH-cytochrome P450 reductase); assay: biochemical
[6] = system: b5R activity in rat liver microsomes; conditions: concentrations up to 10 mM, ref Lee and Kariya, 1986; cited from earlier work
[7] = system: CPR activity in rat liver microsomes; conditions: concentrations up to 10 mM, ref Lee and Kariya, 1986; cited from earlier work

Row | reduction in CPR activity ([1]; 2 mM α-lipoic acid, maximal effect) [%] | reduction in CPR activity ([2]; 2 mM α-lipoic acid) [%] | IC50 [3] [µM] | reduction in b5R activity ([3]; recombinant enzyme, 2 mM α-lipoic acid, maximal effect) [%] | reduction in b5R activity ([4]; 2 mM α-lipoic acid) [%] | IC50 [5] [µM] | decrease in CPR activity ([1]; 4 mM PTU) [%] | reduction in CPR activity ([2]; 4 mM PTU (highest concentration)) | decrease in b5R activity ([3]; recombinant enzyme, 4 mM PTU, 15 min pre-incubation at 25°C) [%] | reduction in b5R activity ([4]; 4 mM PTU (highest concentration), 15 min pre-incubation at 25°C) [%] | maximal inhibition of b5R activity ([4]; over 1 to 4 mM PTU) | Structure (SMILES) | effect on b5R activity [6] | effect on CPR activity [7]
1 | 92 | 76 | 50 ± 50 | 84 | 54 | 140 ± 20 |  |  |  |  |  | O=C(O)CCCCC1CCSS1 (stereo not drawn) [α-lipoic acid] |  | 
2 |  |  |  |  |  |  | 51 | 16% and < 20% | 78 | 41 | about 40% | CCCc1cc(=O)[nH]c(=S)[nH]1 [PTU, 6-propyl-2-thiouracil] | selectively inhibit b5R activity | without reducing CPR activity
